ChEMBL document CHEMBL1141994, “Identification of an agonist ligand for estrogen-related receptors ERRbeta/gamma” (Bioorg Med Chem Lett, 2005)

Experiments:
Assay type in all cases: functional
[1] = target: T1, Steroid hormone receptor ERR1 (Homo sapiens) (UniProt P11474); test: Fold activation of estrogen-related receptor alpha at 100 nM in cell-based reporter gene assay
T1 sequence (whole entry): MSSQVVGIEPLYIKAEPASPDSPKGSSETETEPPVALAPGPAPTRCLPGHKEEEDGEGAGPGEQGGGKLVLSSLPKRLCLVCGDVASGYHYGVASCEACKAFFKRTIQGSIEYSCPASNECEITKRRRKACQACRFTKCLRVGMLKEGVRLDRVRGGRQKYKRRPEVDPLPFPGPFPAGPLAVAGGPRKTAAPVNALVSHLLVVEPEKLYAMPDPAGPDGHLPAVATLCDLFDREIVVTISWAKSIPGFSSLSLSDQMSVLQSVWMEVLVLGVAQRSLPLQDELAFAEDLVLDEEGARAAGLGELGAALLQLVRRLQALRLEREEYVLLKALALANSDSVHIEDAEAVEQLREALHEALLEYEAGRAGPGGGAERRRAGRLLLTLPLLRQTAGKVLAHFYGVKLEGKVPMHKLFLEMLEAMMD

[2] = target: T2, Estrogen-related receptor gamma (Homo sapiens) (UniProt P62508); test: Fold activation of estrogen-related receptor gamma at 100 nM in cell-based reporter gene assay
T2 sequence (whole entry): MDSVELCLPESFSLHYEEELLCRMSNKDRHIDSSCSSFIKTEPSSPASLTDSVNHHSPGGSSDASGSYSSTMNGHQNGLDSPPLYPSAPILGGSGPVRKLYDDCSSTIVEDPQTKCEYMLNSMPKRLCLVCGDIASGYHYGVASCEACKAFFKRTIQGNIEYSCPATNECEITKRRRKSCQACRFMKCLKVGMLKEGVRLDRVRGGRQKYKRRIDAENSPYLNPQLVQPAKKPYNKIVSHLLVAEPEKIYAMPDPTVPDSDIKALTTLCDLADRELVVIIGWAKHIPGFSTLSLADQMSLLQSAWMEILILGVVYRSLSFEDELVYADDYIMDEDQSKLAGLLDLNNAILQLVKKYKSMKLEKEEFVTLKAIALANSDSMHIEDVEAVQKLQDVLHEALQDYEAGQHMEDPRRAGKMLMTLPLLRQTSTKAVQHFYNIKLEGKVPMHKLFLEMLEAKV

[3] = target: T3, Steroid hormone receptor ERR2 (Homo sapiens) (UniProt O95718); test: Fold activation of estrogen-related receptor beta at 100 nM in cell-based reporter gene assay
T3 sequence (whole entry): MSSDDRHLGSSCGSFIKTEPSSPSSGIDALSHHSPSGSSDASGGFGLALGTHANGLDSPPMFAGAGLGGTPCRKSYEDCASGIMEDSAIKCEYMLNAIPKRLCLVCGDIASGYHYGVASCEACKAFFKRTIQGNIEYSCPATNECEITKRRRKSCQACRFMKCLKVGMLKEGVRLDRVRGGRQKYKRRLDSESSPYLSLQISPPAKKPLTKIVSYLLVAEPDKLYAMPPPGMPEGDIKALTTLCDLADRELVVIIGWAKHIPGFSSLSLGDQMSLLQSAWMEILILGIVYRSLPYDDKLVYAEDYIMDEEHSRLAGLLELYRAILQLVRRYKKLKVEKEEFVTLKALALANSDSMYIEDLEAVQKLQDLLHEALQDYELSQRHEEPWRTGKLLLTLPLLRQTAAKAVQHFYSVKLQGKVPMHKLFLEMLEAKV

**Q.** What does the source list for `C[C@]12CC[C@@H]3c4ccc(O)cc4CC[C@H]3[C@@H]1CC[C@@H]2O`?
**A.** Activity [1]: 1.1; Activity [2]: 0.8; Activity [3]: 1
